Assay results as given in US10912815B2, “Inhibitors of mitochondrial fission and methods of use thereof” (The Board of Trustees of the Leland Stanford Junior …, priority 2011, dated 2021).
No end group written: not given here.

Tests used:
[1] = test system: SH-SY5Y cells
Method: Cell viability of stressed SH-SY5Y cells was measured by MTT assay.
In another experiment, Human SH-SY5Y cells were treated with Drp1 P108, P109 or P110 or Fis1 P111, P112 or P113 (0.5 μM) for 15 min followed by treatment with MPP+(1 mM for 24 hrs). The cell viability was then determined by MTT test.

[2] = test system: isolated mouse liver mitochondria with Drp1 recombinant protein; assay: Cytochrome c levels in isolated mouse liver mitochondria incubated with Drp1; type: biochemical; conditions: 8 min of Drp1 incubation, FIG. 6D top
Method: Mitochondrial membrane potential was also determined using TMRM (tetramethylrhodamine methylester). Fifty μg of mitochondria were incubated with recombinant Drp1 (50 ng) followed by incubation with TMRM (0.5 μM) in the presence or absence of P110 (1 μM) or NAC (2.5 mM). Fluoresence detection was performed using black 96-well plates in a fluorescence microplate reader at 560 nm excitation and 690 nm emission and potential was assessed by quenching of the fluorescent signal. The data are presented as mean±S.E. of percentage relative to control mitochondria from three independent experiments (FIG. 6B, #, p<0.05 vs. control cells; *, p<0.05; **, P<0.01 vs. MPP+- or CCCP-treated cells). Isolated mouse liver mitochondria (50 μg) were incubated with Drp1 recombinant protein (50 ng) in the presence or absence of P110 (1 μM). A kinetic change of mitochondrial superoxide production was determined by using MITOSOX™ (red mitochondrial superoxide indicator). […] Mitochondrial membrane potential of isolated mouse liver mitochondria was determined by TMRM, as described above, in the indicated groups. […] Protein levels of cytochrome c in the mitochondria were determined by western blot analysis with anti-cytochrome c antibodies in the indicated groups (insert, FIG. 6D). Total ROS production was determined by staining SH-SY5Y cells with CM2HDCFA (1 μM […] at 37° C.) in the indicated groups. […]

[3] = target: T1, Mfn1 (Homo sapiens, UniProt Q8IWA4); assay: In vitro GTPase assay, recombinant Mfn1; type: biochemical; conditions: recombinant Mfn1 25 ng, FIG. 2B
T1 sequence (Q8IWA4 1-741): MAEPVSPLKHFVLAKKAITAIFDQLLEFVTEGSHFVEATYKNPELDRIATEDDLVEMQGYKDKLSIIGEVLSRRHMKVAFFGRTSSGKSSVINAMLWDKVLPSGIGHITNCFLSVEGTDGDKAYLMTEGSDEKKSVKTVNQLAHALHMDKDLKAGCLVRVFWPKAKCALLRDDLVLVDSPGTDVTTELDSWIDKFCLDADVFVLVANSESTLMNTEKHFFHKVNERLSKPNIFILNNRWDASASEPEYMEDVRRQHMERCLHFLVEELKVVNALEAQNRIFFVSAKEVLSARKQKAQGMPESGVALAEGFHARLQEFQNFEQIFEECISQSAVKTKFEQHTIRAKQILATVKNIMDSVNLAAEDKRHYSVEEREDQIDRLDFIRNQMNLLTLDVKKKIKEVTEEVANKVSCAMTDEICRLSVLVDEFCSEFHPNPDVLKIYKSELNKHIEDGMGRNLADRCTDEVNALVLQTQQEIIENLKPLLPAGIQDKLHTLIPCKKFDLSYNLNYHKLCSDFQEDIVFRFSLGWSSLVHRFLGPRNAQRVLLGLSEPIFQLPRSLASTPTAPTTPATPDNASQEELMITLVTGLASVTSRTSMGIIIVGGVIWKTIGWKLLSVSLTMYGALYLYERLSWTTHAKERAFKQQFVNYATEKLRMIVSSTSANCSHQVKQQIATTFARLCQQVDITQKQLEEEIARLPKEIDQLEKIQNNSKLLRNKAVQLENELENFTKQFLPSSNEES
Method: First, mitochondrial fission inhibitor constructs were tested to determine what, if any, effects each peptide had on enzyme (GTPase) activity. Recombinant protein Drp1, Mfn1, OPA1 or dynamin-1 (25 ng) was incubated with the indicated modulator peptides for 30 min. GTPase activity was assayed in vitro using a GTPase assay kit (Innova Biosciences, Littleton, USA, or Novus Biologicals, Littleton, Colo.) according to manufacturer's instructions.

[4] = test system: Drp1; assay: Drp1 translocation to mitochondria in SH-SY5Y cells (western blot of mitochondrial fractions); type: cell-based, human
Method: Cultured human SH-SY5Y neuronal cells were treated with peptide P110 (1 μM) for 30 min prior to 1 hr incubation in the absence or presence of MPP+(1-methyl-4-phenylpyridinium, a specific mitochondrial complex I inhibitor) (2 mM) or CCCP (carbonyl cyanide m-chloro phenyl hydrazone) (10 μM). Western blot analysis of mitochondrial fractions was determined by the indicated antibodies. VDAC was used as a loading control.
In another experiment, mitochondria were isolated from SH-SY5Y neuronal cells exposed to MPP+ in the absence or presence of P110. Mitochondrial fractions were subjected to Western blot analysis. The levels of Drp1, Fis1, Mff, Mfn1 (mitofisinl) and OPA1 in the mitochondrial fractions were determined. Voltage-dependent […] (VDAC), a marker of mitochondria, was used as internal loading controls. Quantitative data from three independent experiments are provided a the histogram, with data shown as mean±S.E (FIG. 3D).

[5] = test system: SH-SY5Y cells; assay: Total ROS production in SH-SY5Y cells (CM-H2DCFDA); type: cell-based, human; conditions: MPP+ and CCCP 24 hrs, FIG. 6E
Method: The effects of MPP+ or CCCP on translocation of Drp1 in the absence and presence of P110 was measured using confocal microscopy. Cultured SH-SY5Y cells in black 96-well plate were treated with Drp1 peptide inhibitor P110 (1 μM) 30 min prior to treatment of MPP+ (2 mM) or CCCP (5 uM). After 2 hrs of treatment, cells were stained with MITOSOX™ (red mitochondrial superoxide indicator) (5 uM, for 10 min, mitochondrial ROS) or TMRM (0.5 uM, for 20 min, MMP) at 37° C. For total ROS detection, cells were treated with MPP+ or CCCP for 24 hrs. ROS level was measured by CM-H2DCFDA (1 μM for 30 min, Invitrogen). Cells were washed with PBS for three times. The detection was performed in a fluorescence microplate reader (Tecan, Infinite M1000) according to manufacturer's instructions. Measurements were normalized to the cell number counted using Hoechst staining.
Mitochondrial membrane potential was also determined using TMRM (tetramethylrhodamine methylester). […] Fluoresence detection was performed using black 96-well plates in a fluorescence microplate reader at 560 nm excitation and 690 nm emission and potential was assessed by quenching of the fluorescent signal. […] A kinetic change of mitochondrial superoxide production was determined by using MITOSOX™ (red mitochondrial superoxide indicator). […]

Question: Which “mitochondrial damage and neuronal cell death (MTT)” value ([1]; peptides 0.5 μM 15 min, MPP+ 1 mM for 24 hrs, n=7-8, FIG. 9F) does the source give for “RRRQRRKKRGYGGDLLPRGS (RRRQRRKKRGYGGDLLPRGS-NH2) [P110, TAT47-57 carrier, GG linker, Drp1 region 110 (GTPase domain) peptide DLLPRGS; C-terminus C(O)-NH2]” here?
Answer: The value was “reduced mitochondrial damage and neuronal cell death”.

Question: And the “cell viability (MTT)” value ([1]; peptides 1 μM each, MPP+ 2 mM for 24 hours, FIG. 9E)?
Answer: The value was “improved cell viability”.

Question: And the “cytochrome c release from the mitochondria” value [2]?
Answer: Its value is “inhibited cytochrome c release”.

Question: And the “effect on GTPase activity of Mfn1 (mitofusin 1)” value [3]?
Answer: The value was “no effects”.

Question: What about the “levels of Drp1 associated with the mitochondrial fractions under stress” value ([4]; P110 1 μM 30 min before MPP+, CCCP, H2O2 or rotenone, FIG. 3A, 3B) of the same sequence?
Answer: The value was “abolished the increased levels of Drp1”.

Question: What about the “cellular level and distribution of other mitochondrial dynamics-related proteins (MFN-1/2, OPA1, Fis1)” value ([4]; SH-SY5Y, MPP+, FIG. 3C, 3D) of the same sequence?
Answer: Its value is “did not affect”.

Question: And the “reduction of MPP+-induced translocation of Drp1 from cytosol to the mitochondria” value ([4]; SH-SY5Y, MPP+, p<0.01, n=3, FIG. 3C, 3D)?
Answer: The value was “more than 60%”.

Question: And the “total ROS produced by the mitochondrial stressors” value [5]?
Answer: Its value is “greatly reduced”.
